Measurements: PubChem BioAssay AID2060612 (Molecular Pharmacology Branch, DTP, NCI, 2025)
“And” between values parts separate entries of the source, which are not always exact repeats. Equal values may be shown once. One block for each compound: values may come before it.

Tested on: 565232-114-T-J1-PDC complex spheroid viability
Test: Anticancer human tumor 565232-114-T-J1-PDC patient-derived bladder carcinoma cell line growth inhibition [CLK]
Settings: for viability, T/C: stronger effect = lower value
Outline: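 Patient-derived tumor cells grown as complex spheroids with HUVEC endothelial cells and mesenchymal stem cells, treated with drug combinations. Concentrations descend in half-log steps from near clinical Cmax, or from 10 microM if Cmax unknown.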

[1] = curve of first compound, second compound 0.0316 µM
[2] = curve of first compound, second compound 0.1 µM
[3] = curve of first compound, second compound 0.316 µM
[4] = curve of first compound, second compound 1 µM
[5] = curve of first compound, second compound 3.16 µM
[6] = curve of first compound, second compound 10 µM
[7] = second compound 0.0316 µM, first compound 0.0316 µM
[8] = second compound 0.0316 µM, first compound 0.1 µM
[9] = second compound 0.0316 µM, first compound 0.316 µM
[10] = second compound 0.0316 µM, first compound 1 µM
[11] = second compound 0.1 µM, first compound 0.0316 µM
[12] = second compound 0.1 µM, first compound 0.1 µM
[13] = second compound 0.1 µM, first compound 0.316 µM
[14] = second compound 0.1 µM, first compound 1 µM
[15] = second compound 0.316 µM, first compound 0.0316 µM
[16] = second compound 0.316 µM, first compound 0.1 µM
[17] = second compound 0.316 µM, first compound 0.316 µM
[18] = second compound 0.316 µM, first compound 1 µM
[19] = second compound 1 µM, first compound 0.0316 µM
[20] = second compound 1 µM, first compound 0.1 µM
[21] = second compound 1 µM, first compound 0.316 µM
[22] = second compound 1 µM, first compound 1 µM
[23] = second compound 3.16 µM, first compound 0.0316 µM
[24] = second compound 3.16 µM, first compound 0.1 µM
[25] = second compound 3.16 µM, first compound 0.316 µM
[26] = second compound 3.16 µM, first compound 1 µM
[27] = second compound 10 µM, first compound 0.0316 µM
[28] = second compound 10 µM, first compound 0.1 µM
[29] = second compound 10 µM, first compound 0.316 µM
[30] = second compound 10 µM, first compound 1 µM
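Further: spheroids exposed to compounds for 7 days before readout.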
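Wherever viability, T/C is given: 100% = DMSO vehicle wells with luminescence normalized to vehicle control.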

IC50 (curve of compound): 568 nM
Compound: COC1C=CCC(C)C(C)S(=O)(=O)NC(=O)c2ccc3c(c2)N(CC2CCC21)CC1(CCCc2cc(Cl)ccc21)CO3 (stereo not given)
viability, T/C (compound 0.0316 µM): 93.3%
viability, T/C (compound 0.1 µM): 92.9%
viability, T/C (compound 0.316 µM): 79.9%
viability, T/C (compound 1 µM): 21%
viability, T/C (compound 3.16 µM): 6.86%
viability, T/C (compound 10 µM): 3.28%

IC50 (curve of compound): 533 nM and 92.5 nM
Compound: COc1cccc2c1C(=O)c1c(O)c3c(c(O)c1C2=O)CC(O)(C(=O)CO)CC3OC1CC(N)C(O)C(C)O1 (stereo not given)
viability, T/C (compound 0.0316 µM): 93.4% and 109%
viability, T/C (compound 0.1 µM): 85.3% and 45.3%
viability, T/C (compound 0.316 µM): 78.4% and 15.7%
viability, T/C (compound 1 µM): 16.1% and 0.8%
viability, T/C (compound 3.16 µM): 0.18% and 0.27%
viability, T/C (compound 10 µM): 0.14% and 0.26%

IC50 (curve of compound): > 10000 nM and 6780 nM
Compound: CC1COCCN1c1cc(C2(S(C)(=N)=O)CC2)nc(-c2ccnc3[nH]ccc23)n1 (stereo not given)
viability, T/C (compound 0.0316 µM): 83.5% and 105%
viability, T/C (compound 0.1 µM): 88.9% and 90.1%
viability, T/C (compound 0.316 µM): 101% and 94.8%
viability, T/C (compound 1 µM): 88% and 99.1%
viability, T/C (compound 3.16 µM): 76.2% and 99.8%
viability, T/C (compound 10 µM): 63.5% and 25.8%

Second part, the compound before the results:

Compound: CCN1CCN(Cc2ccc(Nc3ncc(F)c(-c4cc(F)c5nc(C)n(C(C)C)c5c4)n3)nc2)CC1 + CN1CCN(c2cc(C(=O)Nc3cc4cc(-c5cnn(C)c5)ccc4cn3)ccn2)CC1
IC50 [1]: > 1000 nM
IC50 [2]: > 1000 nM
IC50 [3]: < 3.16 nM
IC50 [4]: < 3.16 nM
IC50 [5]: < 3.16 nM
IC50 [6]: < 3.16 nM
viability, T/C (second compound 0.0316 µM, first compound 0.00316 µM): 116%
viability, T/C (second compound 0.0316 µM, first compound 0.01 µM): 82.1%
viability, T/C [7]: 98.7%
viability, T/C [8]: 92.8%
viability, T/C [9]: 113%
viability, T/C [10]: 123%
viability, T/C (second compound 0.1 µM, first compound 0.00316 µM): 88.1%
viability, T/C (second compound 0.1 µM, first compound 0.01 µM): 90.2%
viability, T/C [11]: 89%
viability, T/C [12]: 103%
viability, T/C [13]: 116%
viability, T/C [14]: 113%
viability, T/C (second compound 0.316 µM, first compound 0.00316 µM): 15.5%
viability, T/C (second compound 0.316 µM, first compound 0.01 µM): 24.7%
viability, T/C [15]: 23.2%
viability, T/C [16]: 29.1%
viability, T/C [17]: 42.4%
viability, T/C [18]: 61.1%
viability, T/C (second compound 1 µM, first compound 0.00316 µM): 0.26%
viability, T/C (second compound 1 µM, first compound 0.01 µM): 0.27%
viability, T/C [19]: 0.3%
viability, T/C [20]: 0.29%
viability, T/C [21]: 1.31%
viability, T/C [22]: 2.37%
viability, T/C (second compound 3.16 µM, first compound 0.00316 µM): 0.2%
viability, T/C (second compound 3.16 µM, first compound 0.01 µM): 0.22%
viability, T/C [23]: 0.96%
viability, T/C [24]: 0.16%
viability, T/C [25]: 0.25%
viability, T/C [26]: 0.35%
viability, T/C (second compound 10 µM, first compound 0.00316 µM): 0.18%
viability, T/C (second compound 10 µM, first compound 0.01 µM): 0.2%
viability, T/C [27]: 0.5%
viability, T/C [28]: 0.16%
viability, T/C [29]: 0.21%
viability, T/C [30]: 1.34%

Compound: Nc1ccccc1NC(=O)c1ccc(CNC(=O)OCc2cccnc2)cc1 + CN1CCN(c2cc(C(=O)Nc3cc4cc(-c5cnn(C)c5)ccc4cn3)ccn2)CC1
IC50 [1]: 5260 nM
IC50 [2]: 2660 nM
IC50 [3]: < 31.6 nM
IC50 [4]: < 31.6 nM
IC50 [5]: < 31.6 nM
IC50 [6]: < 31.6 nM
viability, T/C [7]: 110%
viability, T/C [8]: 108%
viability, T/C [9]: 111%
viability, T/C [10]: 100%
viability, T/C (second compound 0.0316 µM, first compound 3.16 µM): 89.8%
viability, T/C (second compound 0.0316 µM, first compound 10 µM): 1.38%
viability, T/C [11]: 107%
viability, T/C [12]: 93.5%
viability, T/C [13]: 92.5%
viability, T/C [14]: 89.9%
viability, T/C (second compound 0.1 µM, first compound 3.16 µM): 42.9%
viability, T/C (second compound 0.1 µM, first compound 10 µM): 0.29%
viability, T/C [15]: 16.2%
viability, T/C [16]: 23%
viability, T/C [17]: 11.5%
viability, T/C [18]: 9.54%
viability, T/C (second compound 0.316 µM, first compound 3.16 µM): 2.07%
viability, T/C (second compound 0.316 µM, first compound 10 µM): 0.07%
viability, T/C [19]: 0.15%
viability, T/C [20]: 1.24%
viability, T/C [21]: 3.47%
viability, T/C [22]: 0.16%
viability, T/C (second compound 1 µM, first compound 3.16 µM): 1.45%
viability, T/C (second compound 1 µM, first compound 10 µM): 0.11%
viability, T/C [23]: 0.3%
viability, T/C [24]: 3.93%
viability, T/C [25]: 3.86%
viability, T/C [26]: 0.23%
viability, T/C (second compound 3.16 µM, first compound 3.16 µM): 0.19%
viability, T/C (second compound 3.16 µM, first compound 10 µM): 0.18%
viability, T/C [27]: 0.11%
viability, T/C [28]: 0.5%
viability, T/C [29]: 2.65%
viability, T/C [30]: 0.16%
viability, T/C (second compound 10 µM, first compound 3.16 µM): 0.94%
viability, T/C (second compound 10 µM, first compound 10 µM): 0.18%
